Results from PubChem BioAssay AID1963841 (Molecular Pharmacology Branch, DTP, NCI, 2024).

Tested on: 439559-082-T-J2-PDC spheroid viability
Assay: Anticancer human tumor 439559-082-T-J2-PDC patient-derived colon adenocarcinoma cell line growth inhibition [POLQ]
Settings: spheroids with HUVEC and MSC; for IC50: curve of first compound; for viability, T/C: stronger effect = lower value
Description: Multicellular complex tumor spheroid response to Polymerase (POL) inhibitors (novobiocin, ART-558, RP6685) in combination with a variety of drugs and investigational agents in selected tumor cell lines
The POL inhibitors (novobiocin, ART-558, and RP6685) were evaluated both individually and in combination with standard of care and investigational anticancer small molecules within a complex spheroid model of solid tumors. . Complex spheroids include a stromal component modeled by human endothelial cells (HUVEC) and fibroblasts modeled by human mesenchymal stem cells (MSCs). The concentration ranges selected for each drug and investigational agent were based upon clinically achievable concentrations if the clinical Cmax of the agent was known.
Compounds. The drugs and investigational agents: novobiocin (NSC847541), ART-558 (NSC835418), RP-6685 (NSC848927), peposertib (NSC802822), ceralasertib (NSC780249), elimusertib (NSC800525), camonsertib (NSC841442), AZD-1390 (NSC803789), olaparib (NSC753686), talazoparib (NSC767125), rucaparib (NSC756644), sotorasib (NSC818433), MRTX-1133 (NSC836407), SN-38 (NSC673596), topotecan (NSC609699), epotoside (NSC141540), doxorubicin (NSC123127), gemcitabine (NSC613327), 5-fluorouracil (NSC19893), paclitaxel (NSC125973), vemurafenib (NSC761431), MSA-2 (NSC828583), SN-011 (NSC837082), adavosertib (NSC754352), prexasertib (NSC758257), carboplatin (NSC241240) and oxaliplatin (NSC266046), were obtained from the National Cancer Institute (NCI) Developmental Therapeutics Program Chemical Repository (21). The FDA-approved anticancer drug set is available from the Developmental Therapeutics Program at https://dtp.cancer.gov/organization/dscb/obtaining/. […] The stock solutions were prepared in dimethyl sulfoxide (DMSO, Sigma-Aldrich, St. Louis, MO, cat. D2650), except for the platinum compounds which were prepared in saline (Quality Biological, Gaithersburg, MD, cat. 114-055-101), at 800-fold the tested concentration and stored at -70 degrees C prior to their use. All drugs and investigational agents were tested over a range starting from a high concentration at or near the clinical Cmax and decreasing in half-log increments. If the clinical Cmax for an agent had not been determined, the highest concentration tested was 10 microM, except for SN-38, which was tested at a high concentration of 1 microM.
Cell Culture. All cells were maintained in an incubator at 37 degrees C and 5% CO2 with 95% humidity. The PDC lines were cultured according to standard operating procedures established by the NCI PDMR (https://pdmr.cancer.gov). Table 3 of the manuscript, lists the cell lines along with the number of the three cell types plated to form the mct-spheroids and media for tumor cell growth. After thawing, all PDC lines, except 997537-175-T-J1-PDC and 415267-285-R-J2-PDC, were cultured in Matrigel-coated flasks prepared with a working solution of 1X Ham's F-12 nutrient mix, without supplementation (Thermo Fisher Scientific, cat. 11765054), 100 U/mL penicillin-streptomycin (Thermo Fisher Scientific, cat. 15140122), and 2.5% Matrigel (Corning Inc., Corning, NY, cat. 354248) for the first three passages. The two PDC lines 997537-175-T-J1-PDC and 415267-285-R-J2-PDC were cultured on uncoated flasks. The 857933-349-R-J2-PDC line was cultured in 6C/Colon 1B media containing advanced DMEM/F-12 (Thermo Fisher Scientific, cat. 12634028), 10 mM HEPES (Thermo Fisher Scientific, cat. 15630080), 1X GlutaMAX supplement (Thermo Fisher Scientific, cat. 35050061), 0.1 mg/mL primocin (InvivoGen, San Diego, CA, cat. ant-pm-2), 10% defined fetal bovine serum, heat inactivated (HyClone Laboratories Inc., Logan, UT, cat. SH30070.03HI), 50% L-WRN conditioned media (ATCC, cat. CRL-3276), 1.25 mM N-Acetyl-L-cysteine (Sigma-Aldrich, cat. A9165), 10 mM nicotinamide (Sigma-Aldrich, cat. N0636), 1X B-27 supplement (Thermo Fisher Scientific, cat. 17504044), 1X N-2 supplement (Thermo Fisher Scientific, cat. […]

[1] = second compound 0.0316 µM, first compound 0.0316 µM
[2] = second compound 0.0316 µM, first compound 0.1 µM
[3] = second compound 0.0316 µM, first compound 0.316 µM
[4] = second compound 0.0316 µM, first compound 1 µM
[5] = second compound 0.0316 µM, first compound 3.16 µM
[6] = second compound 0.0316 µM, first compound 10 µM
[7] = second compound 0.1 µM, first compound 0.0316 µM
[8] = second compound 0.1 µM, first compound 0.1 µM
[9] = second compound 0.1 µM, first compound 0.316 µM
[10] = second compound 0.1 µM, first compound 1 µM
[11] = second compound 0.1 µM, first compound 3.16 µM
[12] = second compound 0.1 µM, first compound 10 µM
[13] = second compound 0.316 µM, first compound 0.0316 µM
[14] = second compound 0.316 µM, first compound 0.1 µM
[15] = second compound 0.316 µM, first compound 0.316 µM
[16] = second compound 0.316 µM, first compound 1 µM
[17] = second compound 0.316 µM, first compound 3.16 µM
[18] = second compound 0.316 µM, first compound 10 µM
[19] = second compound 1 µM, first compound 0.0316 µM
[20] = second compound 1 µM, first compound 0.1 µM
[21] = second compound 1 µM, first compound 0.316 µM
[22] = second compound 1 µM, first compound 1 µM
[23] = second compound 1 µM, first compound 3.16 µM
[24] = second compound 1 µM, first compound 10 µM
[25] = second compound 3.16 µM, first compound 0.0316 µM
[26] = second compound 3.16 µM, first compound 0.1 µM
[27] = second compound 3.16 µM, first compound 0.316 µM
[28] = second compound 3.16 µM, first compound 1 µM
[29] = second compound 3.16 µM, first compound 3.16 µM
[30] = second compound 3.16 µM, first compound 10 µM
[31] = second compound 10 µM, first compound 0.0316 µM
[32] = second compound 10 µM, first compound 0.1 µM
[33] = second compound 10 µM, first compound 0.316 µM
[34] = second compound 10 µM, first compound 1 µM
[35] = second compound 10 µM, first compound 3.16 µM
[36] = second compound 10 µM, first compound 10 µM
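Note: spheroids exposed to compounds for seven days before readout.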
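Throughout, for viability, T/C: 100% = DMSO vehicle control viability.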

SMILES: COc1cc(C2c3cc4c(cc3C(OC3OC5COC(C)OC5C(O)C3O)C3COC(=O)C23)OCO4)cc(OC)c1O (centres undefined) + Cc1cccc(N(C)C(=O)C2C(O)CCN2c2nc(C)cc(C(F)(F)F)c2C#N)c1
- IC50 (second compound 0.0316 µM): > 10 µM
- IC50 (second compound 0.1 µM): > 10 µM
- IC50 (second compound 0.316 µM): > 10 µM
- IC50 (second compound 1 µM): > 10 µM
- IC50 (second compound 3.16 µM): > 10 µM
- IC50 (second compound 10 µM): > 10 µM
- viability, T/C [1]: 90.7%
- viability, T/C [2]: 99.6%
- viability, T/C [3]: 95.6%
- viability, T/C [4]: 95.3%
- viability, T/C [5]: 76.8%
- viability, T/C [6]: 68.8%
- viability, T/C [7]: 103%
- viability, T/C [8]: 101%
- viability, T/C [9]: 98.1%
- viability, T/C [10]: 89.8%
- viability, T/C [11]: 83.4%
- viability, T/C [12]: 79.1%
- viability, T/C [13]: 96.9%
- viability, T/C [14]: 92.4%
- viability, T/C [15]: 95.2%
- viability, T/C [16]: 88.2%
- viability, T/C [17]: 82.1%
- viability, T/C [18]: 69.1%
- viability, T/C [19]: 108%
- viability, T/C [20]: 90.8%
- viability, T/C [21]: 93.5%
- viability, T/C [22]: 90.4%
- viability, T/C [23]: 84.2%
- viability, T/C [24]: 73.4%
- viability, T/C [25]: 90.9%
- viability, T/C [26]: 102%
- viability, T/C [27]: 90.8%
- viability, T/C [28]: 83.3%
- viability, T/C [29]: 82.1%
- viability, T/C [30]: 70.6%
- viability, T/C [31]: 92.4%
- viability, T/C [32]: 82.5%
- viability, T/C [33]: 95.4%
- viability, T/C [34]: 86.8%
- viability, T/C [35]: 71%
- viability, T/C [36]: 59.9%

SMILES: COc1cccc2c1C(=O)c1c(O)c3c(c(O)c1C2=O)CC(O)(C(=O)CO)CC3OC1CC(N)C(O)C(C)O1 (centres undefined) + Cc1cccc(N(C)C(=O)C2C(O)CCN2c2nc(C)cc(C(F)(F)F)c2C#N)c1
- IC50 (second compound 0.0316 µM): > 10 µM
- IC50 (second compound 0.1 µM): > 10 µM
- IC50 (second compound 0.316 µM): > 10 µM
- IC50 (second compound 1 µM): 9.22 µM
- IC50 (second compound 3.16 µM): 9.74 µM
- IC50 (second compound 10 µM): > 10 µM
- viability, T/C [1]: 99%
- viability, T/C [2]: 87.9%
- viability, T/C [3]: 79.6%
- viability, T/C [4]: 70.5%
- viability, T/C [5]: 60.8%
- viability, T/C [6]: 53.2%
- viability, T/C [7]: 96.2%
- viability, T/C [8]: 92.5%
- viability, T/C [9]: 80.7%
- viability, T/C [10]: 70.2%
- viability, T/C [11]: 62.9%
- viability, T/C [12]: 52.8%
- viability, T/C [13]: 95.2%
- viability, T/C [14]: 94.4%
- viability, T/C [15]: 79.4%
- viability, T/C [16]: 68.2%
- viability, T/C [17]: 63%
- viability, T/C [18]: 51.7%
- viability, T/C [19]: 100%
- viability, T/C [20]: 97.9%
- viability, T/C [21]: 79.6%
- viability, T/C [22]: 70.1%
- viability, T/C [23]: 62.8%
- viability, T/C [24]: 48.2%
- viability, T/C [25]: 96.7%
- viability, T/C [26]: 86.1%
- viability, T/C [27]: 81.2%
- viability, T/C [28]: 70%
- viability, T/C [29]: 56.3%
- viability, T/C [30]: 50.6%
- viability, T/C [31]: 96.2%
- viability, T/C [32]: 81.4%
- viability, T/C [33]: 80.1%
- viability, T/C [34]: 68.2%
- viability, T/C [35]: 63.9%
- viability, T/C [36]: 48.8%
